Values of other authors, collected in patent US7087769B1, “Process for the preparation of cationic surfactants” (Laboratorios Miret, S.A., priority 2000, dated 2006).
Where two headings read alike, the source gives them in different places.

Columns and labels:
Escherichia coli = conditions: EP-A-0 749 960
Staphylococcus aureus = conditions: EP-A-0 749 960
Pseudomonas aeruginosa = conditions: EP-A-0 749 960
Candida albicans = conditions: EP-A-0 749 960
Aspergillus niger = conditions: EP-A-0 749 960
[1] = test system: Bordetella bronchiseptica
[2] = test system: Klebsiella pneumoniae spp. pneumoniae
[3] = test system: Bacillus cereus spp. mycoide
[4] = animals
[5] = human beings

For CCCCCCCCCCCC(=O)N[C@@H](CCCNC(=N)N)C(=O)OCC.Cl [ethyl ester of N^α-lauroyl-L-arginine monohydrochloride], the efficacy against microorganism (Escherichia coli) is given as “proven”, the efficacy against microorganism (Staphylococcus aureus) is given as “proven” and the efficacy against microorganism (Pseudomonas aeruginosa) is given as “proven”. For the same compound, the efficacy against microorganism (Candida albicans) was “proven”, the efficacy against microorganism (Aspergillus niger) was “proven” and the efficacy against bacteria (Alcaligenes faecalis) was “efficaceous”. The efficacy against bacteria [1] was “efficaceous”, the efficacy against bacteria (Citrobacter freundii) was “efficaceous” and the efficacy against bacteria (Enterobacter aerogenes) was “efficaceous”. The efficacy against bacteria [2] was “efficaceous”, the efficacy against bacteria (Proteus mirabilis) was “efficaceous” and the efficacy against bacteria (Salmonelly thyphimurium) was “efficaceous”. The efficacy against bacteria (Serratia marcescens) was “efficaceous”, the efficacy against bacteria (Bacillus subtilus) was “efficaceous” and the efficacy against bacteria [3] was “efficaceous”. The efficacy against bacteria (Micrococcus luteus) was “efficaceous”, the efficacy against bacteria (Arthrobacter oxydans) was “efficaceous” and the efficacy against bacteria (Mycobacterium phlei) was “efficaceous”. The efficacy against bacteria (Listeria monocytogenes) was “efficaceous”, the efficacy against yeasts (Rhodotorula rubra) was “efficaceous” and the efficacy against yeasts (Saccharomyces cerevisiae) was “efficaceous”. The efficacy against yeasts (Zygosaccharomyces rouxii) was “efficaceous”, the efficacy against fungi (Mucor rouxii) was “efficaceous” and the efficacy against fungi (Aureobasidium pullulans) was “efficaceous”. The efficacy against fungi (Chaetonium globosum) was “efficaceous”, the efficacy against fungi (Gliocadium virens) was “efficaceous” and the efficacy against fungi (Penicillium chrysogenum) was “efficaceous”. For the same compound, the efficacy against fungi (Penicillium funiculosum) was “efficaceous”, the tolerability [4] was “well tolerated” and the tolerability [5] was “well tolerated”.
